# Assays:
# [1] = tested on: GFP-labeled E. coli 541-15; assay: Antibiotic susceptibility test (AST) in the EL-MVM^2 microfluidic platform, resazurin fluorescence / GFP readout; type: cell-based; conditions: GFP-labeled E. coli 541-15, 4.5 hours of incubation; intermediate sub-GCP = 1.12-12.54 μg/mL
# E. coli 541-15 = assay: Gold standard broth microdilution (BMD) test, OD600; type: cell-based; conditions: E. coli 541-15, 1×10^6 CFU/mL
substance,measurement,setting,value
Gentamicin,Turning point of GFP-labeled bacterial growth from partially to totally inhibited,[1],intermediate concentration range
same,"MIC (broth microdilution, OD600 nm, 80% reduction)",E. coli 541-15,5.00 µg/mL

# Source: patent US20240050943A1, “MULTI-VOLUME MICROCHAMBER-BASED MICROFLUIDIC PLATFORM AND USE THEREOF” (CORNELL UNIVERSITY, priority 2020, published 2024)
